From patent publication US9222118B2 (priority 2008, dated 2015)
Read-outs that look alike come from different tables or passages of the source.

Assays:
EbolaΔVP30-GFP virus = experiment: microbe, parasite or virus in culture; assay type: cell-based, Zaire ebolavirus; conditions: for % GFP inhibition: 5 µM; for IC50: read-out: IC50; for inhibition at 5 µM: Zaire ebolavirus, read-out: % GFP inhibition
VSVΔG*-Ebolavirus GP = assay type: cell-based
EbolaΔVP30-GFP = assay type: cell-based, Zaire ebolavirus
Ebolavirus minigenome = assay type: cell-based

## 1,2alpha-Epoxy-7-Deacetoxy-7-Oxo-Deoxyhydrogedunin
EbolaΔVP30-GFP virus
  % GFP inhibition: 75%
  IC50: 7.12 µM
VeroVP30 cells
  CC50: > 10 µM
VSVΔG*-Ebolavirus GP
  % infectivity of VSVΔG*-Ebolavirus GP: 6.5±1.6%

## 1-Deacetoxy-1-oxo-3,7-dideacetylkhivorin
EbolaΔVP30-GFP virus
  % GFP inhibition: 19%
VeroVP30 cells
  % cell viability: 94%

## 3beta-Hydroxydeoxydesacetoxy-7-oxogedunin
EbolaΔVP30-GFP virus
  % GFP inhibition: 75%
VeroVP30 cells
  % cell viability: 81%

## 6-Hydroxyangolensic acid methyl ester
EbolaΔVP30-GFP virus
  % GFP inhibition: 15%
VeroVP30 cells
  % cell viability: 94%

## 7-Deacetoxy-3-deacetyl-7-oxokhivorin
EbolaΔVP30-GFP virus
  % GFP inhibition: 92%
  IC50: 0.56 µM
VeroVP30 cells
  % cell viability: 80%
  CC50: > 10 µM

## 7-Deacetyldihydrogedunin
EbolaΔVP30-GFP virus
  % GFP inhibition: −30%
VeroVP30 cells
  % cell viability: 85%

## 11alpha-Acetoxykhivorin
EbolaΔVP30-GFP virus
  % GFP inhibition: −47%
VeroVP30 cells
  % cell viability: 93%

## 17-Allylamino-17-demethoxygeldanamycin [17-AAG]
EbolaΔVP30-GFP
  reduction of EbolaΔVP30 virus growth: 92%
VSVΔG*-Ebolavirus GP; 10 μM
  Infectivities of VSVΔG*-Ebolavirus GP standardized by the infectivities of VSVΔG*-VSV G: 110%
Ebolavirus minigenome
  % luc activity from the Ebolavirus minigenome: 7.9%±1.5%

## CC1(C)C(=O)[C@@H]2O[C@@H]2[C@@]2(C)C1C[C@@H](O)[C@]1(C)C2CC[C@@]2(C)[C@H](c3ccoc3)OC(=O)C3OC321 (stereo partly drawn) [1,2alpha-Epoxydeacetoxydihydrogedunin]
EbolaΔVP30-GFP virus
  % GFP inhibition: 75%
VeroVP30 cells
  % cell viability: 77%

## CC1(C)C2CC(=O)[C@]3(C)C(CC[C@@]4(C)[C@H](c5ccoc5)OC(=O)C5OC543)[C@@]2(C)[C@@H](O)C[C@H]1O (stereo partly shown) [1,3-Dideacetyl-7-deacetoxy-7-oxokhivorin]
EbolaΔVP30-GFP virus
  % GFP inhibition: 100%
  IC50: < 0.15 µM
VeroVP30 cells
  % cell viability: 78%
  CC50: > 10 µM

## CC(=O)O[C@@H]1C[C@H]2C(C)(C)[C@H](O)C[C@H](O)[C@]2(C)[C@H]2CC[C@@]3(C)[C@H](c4ccoc4)OC(=O)[C@H]4O[C@]43[C@@]21C [1,3-Dideacetylkhivorin]
EbolaΔVP30-GFP virus
  % GFP inhibition: 82%
VeroVP30 cells
  % cell viability: 78%

## CC1(C)C2CC(=O)[C@]3(C)C(CC[C@@]4(C)[C@H](c5ccoc5)OC(=O)[C@H]5O[C@]543)[C@@]2(C)C(=O)C[C@H]1O (stereo partly shown) [1,7-Dideacetoxy-1,7-dioxo-3-deacetylkhivorin]
EbolaΔVP30-GFP virus
  % GFP inhibition: 14%
VeroVP30 cells
  % cell viability: 87%

## CC(=O)O[C@@H]1CC(=O)[C@@]2(C)C(CC(=O)[C@]3(C)C2CC[C@@]2(C)[C@H](c4ccoc4)OC(=O)C4OC423)C1(C)C (stereo partly shown) [1,7-Dideacetoxy-1,7-dioxokhivorin]
EbolaΔVP30-GFP virus
  % GFP inhibition: 39%
VeroVP30 cells
  % cell viability: 88%

## CC(=O)O[C@@H]1C[C@H]2C(C)(C)CCC(=O)[C@]2(C)[C@H]2CC[C@@]3(C)[C@H](c4ccoc4)OC(=O)[C@H]4O[C@]43[C@@]21C [2,3-Dihydroisogedunin]
EbolaΔVP30-GFP virus
  % GFP inhibition: −17%
VeroVP30 cells
  % cell viability: 91%

## CC(=O)O[C@H]1C[C@@H](O)C(C)(C)[C@@H]2C[C@@H](OC(C)=O)[C@]3(C)[C@H](CC[C@@]4(C)[C@@H](c5ccoc5)OC(=O)[C@H]5O[C@@]534)[C@@]12C [3-Deacetylkhivorin]
EbolaΔVP30-GFP virus
  % GFP inhibition: 6%
VeroVP30 cells
  % cell viability: 102%

## CC(=O)O[C@@H]1CC2C(C)(C)[C@H](O)CC[C@]2(C)C2CC[C@@]3(C)[C@H](c4ccoc4)OC(=O)C4OC43[C@@]21C (stereo partly drawn) [3alpha-Hydroxydeoxodihydrogedunin]
EbolaΔVP30-GFP virus
  % GFP inhibition: 85%
VeroVP30 cells
  % cell viability: 94%

## CC(=O)O[C@H]1CC[C@]2(C)[C@H]3CC[C@@]4(C)[C@H](c5ccoc5)OC(=O)[C@H]5O[C@]54[C@]3(C)[C@H](OC(C)=O)C[C@H]2C1(C)C [3beta-Acetoxydeoxodihydrogedunin]
EbolaΔVP30-GFP virus
  % GFP inhibition: 90%
VeroVP30 cells
  % cell viability: 80%

## CC(=O)OC1CC2C(C)(C)[C@@H](O)CC[C@]2(C)C2CC[C@]3(C)[C@H](c4ccoc4)OC(=O)[C@H]4O[C@]43[C@]12C (stereo partly drawn) [3beta-Hydroxydeoxodihydrogedunin]
EbolaΔVP30-GFP virus
  % GFP inhibition: 75%
VeroVP30 cells
  % cell viability: 79%

## C=C1C2CC[C@@]3(C)[C@H](c4ccoc4)OC(=O)C[C@]13O[C@H]1CC(=O)C(C)(C)[C@H](C(OC(C)=O)C(=O)OC)[C@@]21C (stereo partly shown) [6-Acetoxyangolensic acid methyl ester]
EbolaΔVP30-GFP virus
  % GFP inhibition: 32%
VeroVP30 cells
  % cell viability: 88%

## CC(=O)O[C@H]1C[C@@H](OC(C)=O)C(C)(C)C2CC(=O)[C@]3(C)C(CC[C@@]4(C)[C@H](c5ccoc5)OC(=O)[C@H]5O[C@]543)[C@]21C (stereo partly shown) [7-Deacetoxy-7-oxokhivorin]
EbolaΔVP30-GFP virus
  % GFP inhibition: 26%
VeroVP30 cells
  % cell viability: 90%

## CC(=O)O[C@H]1C[C@@H](OC(C)=O)C(C)(C)C2C[C@@H](O)[C@]3(C)C(CC[C@@]4(C)[C@H](c5ccoc5)OC(=O)[C@H]5O[C@]543)[C@]21C (stereo partly shown) [7-Deacetylkhivorin]
EbolaΔVP30-GFP virus
  % GFP inhibition: 13%
VeroVP30 cells
  % cell viability: 91%

## CC1(C)C(=O)C=C[C@]2(C)[C@H]3CC[C@@]4(C)[C@H](c5ccoc5)OC(=O)[C@H]5O[C@]54[C@]3(C)C=C[C@@H]12 [7-Desacetoxy-6,7-dehydrogedunin]
EbolaΔVP30-GFP virus
  % GFP inhibition: 2%
VeroVP30 cells
  % cell viability: 70%

## CC(=O)OC1CC(OC(C)=O)C2(C)C(CC(OC(C)=O)C3(C)C2CCC2(C)C(c4ccoc4)OC(=O)C4OC423)C1(C)C (stereo not shown) [7-Epikhivorin]
EbolaΔVP30-GFP virus
  % GFP inhibition: 4%
VeroVP30 cells
  % cell viability: 79%

## NS(=O)(=O)c1nn2cc(-c3ccccc3)nc2s1 [AEG 3482, 6-Phenylimidazo[2,1-b]-1,3,4-thiadiazole-2-sulfonamide]
EbolaΔVP30-GFP
  reduction of EbolaΔVP30 virus growth: 5%
VSVΔG*-Ebolavirus GP; 10 μM
  Infectivities of VSVΔG*-Ebolavirus GP standardized by the infectivities of VSVΔG*-VSV G: 135%
Ebolavirus minigenome
  % luc activity from the Ebolavirus minigenome: 34.0%±8.0%

## C=C1[C@@H]([C@@]2(C)C=CC(=O)C(C)(C)[C@@H]2CC(=O)OC)CC[C@@]2(C)[C@H](c3ccoc3)OC(=O)[C@H]3O[C@]132 [Andirobin]
EbolaΔVP30-GFP virus
  inhibition at 5 µM: -12%
VeroVP30 cells; green monkey
  % cell viability: 91%

## C=C1[C@@H]2CC[C@@]3(C)[C@H](c4ccoc4)OC(=O)C[C@]13O[C@H]1CC(=O)C(C)(C)[C@H](CC(=O)OC)[C@]12C [Angolensic acid, methyl ester]
EbolaΔVP30-GFP virus
  % GFP inhibition: 4%
VeroVP30 cells
  % cell viability: 85%

## CCc1cc(-c2n[nH]c(C)c2-c2ccc3c(c2)OCCO3)c(O)cc1O [CCT 018159, 4-[4-(2,3-Dihydro-1,4-benzodioxin-6-yl)-5-methyl-1H-pyrazol-3-yl]-6-ethyl-1,3-benzenediol]
EbolaΔVP30-GFP
  reduction of EbolaΔVP30 virus growth: 97%
VSVΔG*-Ebolavirus GP
  effect on VSVΔG*-Ebolavirus GP infectivity: slightly reduced
VSVΔG*-Ebolavirus GP; 10 μM
  Infectivities of VSVΔG*-Ebolavirus GP standardized by the infectivities of VSVΔG*-VSV G: 71%
  reduction in Ebolavirus GP-dependent virus infection: ~30%
Ebolavirus minigenome
  % luc activity from the Ebolavirus minigenome: 8.8%±2.6%

## CC1(C)C=CC(=O)[C@@]2(C)C1CC(=O)[C@]1(C)C2CC[C@@]2(C)[C@H](c3ccoc3)OC(=O)C3OC321 (stereo partly shown) [Deacetoxy-7-oxisogedunin]
EbolaΔVP30-GFP virus
  % GFP inhibition: 41%
VeroVP30 cells
  % cell viability: 84%

## CC1(C)C(=O)C=C[C@]2(C)[C@H]3CC[C@@]4(C)[C@H](c5ccoc5)OC(=O)[C@H]5O[C@]54[C@]3(C)C(=O)C[C@@H]12 [Deacetoxy-7-oxogedunin]
EbolaΔVP30-GFP virus
  % GFP inhibition: 80%
VeroVP30 cells
  % cell viability: 79%

## CC1(C)C(=O)C=C[C@]2(C)[C@H]3CC[C@@]4(C)[C@H](c5ccoc5)OC(=O)[C@H]5O[C@]54[C@]3(C)[C@H](O)C[C@@H]12 [Deacetylgedunin]
EbolaΔVP30-GFP virus
  anti-Ebolavirus activity: did not show any anti-Ebolavirus activity
  inhibition at 5 µM: 45%
VeroVP30 cells; green monkey
  % cell viability: 86%

## CC(=O)O[C@@H]1C[C@H]2C(C)(C)C(=O)CC[C@]2(C)[C@H]2CC[C@@]3(C)[C@H](c4ccoc4)OC(=O)[C@H]4O[C@]43[C@@]21C [Dihydrogedunin]
EbolaΔVP30-GFP virus
  inhibition at 5 µM: 96%
VeroVP30 cells; green monkey
  % cell viability: 79%

## CCC(C)C(=O)O[C@@H]1C[C@@]2(C)[C@H](c3ccoc3)OC(=O)CC23OC2(C)OC34[C@H](OC(=O)C(C)C)[C@@]3(O)[C@@H](OC(=O)C5(C)OC5C)[C@@]5(C)C[C@]3(O)[C@@](C)([C@H]5CC(=O)OC)C14O2 (stereo partly shown) [Entandrophragmin]
EbolaΔVP30-GFP virus
  % GFP inhibition: −12%
VeroVP30 cells
  % cell viability: 83%

## CC(=O)O[C@@H]1CC2C(C)(C)C(=O)C3OC3[C@]2(C)C2CC[C@@]3(C)[C@H](c4ccoc4)OC(=O)C4OC43[C@@]21C (stereo partly shown) [Epoxygedunin]
EbolaΔVP30-GFP
  inhibition of EbolaΔVP30-GFP growth: completely inhibited
EbolaΔVP30-GFP virus
  % GFP inhibition: 103%
  IC50: < 0.15 µM
VeroVP30 cells
  % cell viability: 71%
  CC50: > 10 µM
Ebolavirus minigenome
  % luc activity from the Ebolavirus minigenome: 1.0%±0.1%
  effect on protein expression from the Ebolavirus minigenome: inhibit protein expression from the Ebolavirus minigenome

## CC(=O)O[C@@H]1CC2C(C)(C)[C@H](O)C=C[C@]2(C)C2CC[C@@]3(C)[C@H](c4ccoc4)OC(=O)C4OC43[C@@]21C (stereo partly shown) [Gedunol]
EbolaΔVP30-GFP virus
  % GFP inhibition: 79%
VeroVP30 cells
  % cell viability: 82%

## CCC(C)C(OC(C)=O)C(=O)O[C@H]1[C@H](O)[C@@H]2[C@@]3(C)C=CC(=O)C(C)(C)[C@@H]3C[C@@H](OC(=O)C(O)C(C)C)[C@@]2(C)[C@@]23O[C@@H]2C[C@@H](c2ccoc2)[C@]13C (stereo partly shown) [Heudelottin C]
EbolaΔVP30-GFP virus
  % GFP inhibition: 104%
VeroVP30 cells
  % cell viability: 5%

## CC(=O)O[C@@H]1CC2C(C)(C)C=CC(=O)[C@]2(C)C2CC[C@@]3(C)[C@H](c4ccoc4)OC(=O)C4OC43[C@@]21C (stereo partly shown) [Isogedunin]
EbolaΔVP30-GFP virus
  % GFP inhibition: 35%
VeroVP30 cells
  % cell viability: 86%

## CC(=O)O[C@H]1C[C@@H](OC(C)=O)C(C)(C)[C@@H]2C[C@@H](OC(C)=O)[C@]3(C)[C@H](CC[C@@]4(C)[C@H](c5ccoc5)OC(=O)[C@H]5O[C@@]534)[C@@]12C [Khivorin]
EbolaΔVP30-GFP virus
  inhibition at 5 µM: 0%
VeroVP30 cells; green monkey
  % cell viability: 82%

## C=C1[C@@H]([C@@]2(C)[C@@H](OC(C)=O)CC(=O)O[C@](C)(COC(C)=O)[C@@H]2C(=O)OC)[C@@H](OC=O)[C@H](OC(=O)[C@H](O)[C@H](C)CC)[C@@]2(C)[C@H](c3ccoc3)CC(=O)[C@]12O [Prieurianin]
EbolaΔVP30-GFP virus
  inhibition at 5 µM: -17%
VeroVP30 cells; green monkey
  % cell viability: 89%

## CCC(C)C(=O)O[C@@H]1C[C@@]2(C)[C@H](c3ccoc3)OC(=O)CC23OC2(C)O[C@]14[C@]1(C)[C@@H](CC(=O)OC)C5(C)CC1(O)[C@](O)(C5OC(=O)C1(C)OC1C)[C@@H](OC(C)=O)[C@]34O2 (stereo partly shown) [Utilin]
EbolaΔVP30-GFP virus
  inhibition at 5 µM: 4%
VeroVP30 cells; green monkey
  % cell viability: 75%

## Heudelottin E
EbolaΔVP30-GFP virus
  % GFP inhibition: −49%
VeroVP30 cells
  % cell viability: 93%
